The results in this text go back to publication PMC3334918, “Mutagenesis and Functional Studies with Succinate Dehydrogenase Inhibitors in the Wheat Pathogen Mycosphaerella graminicola” (PLoS ONE, 2012).

The structures appear in SMILES notation.

For experiment [1], the system named is M. graminicola WT (IPO323). Description: microbe, parasite or virus in culture. Type of experiment: cell-based, Mycosphaerella graminicola. As for the experimental part: (§1) To explore the sensitivity profiles conferred by amino acid substitutions at the cellular and mitochondrial level, we determined sensitivity towards 4 different compounds for 26 of the identified substitution types both in vivo using liquid culture growth (AE media) and in vitro using purified mitochondria and the succinate: Q0/DCPIP activity test (Table 3). […] Resistance factors (RF) were determined as the ratio IC50mutant/IC50WT. […] Qp site mutations are well known to influence SDH enzyme activity and stability upon catalysis, [13], [38], [41].
Conidial cells were collected from 4 day old V8 agar plates (cultured at 18°C in the dark) using liquid AE and a cell spreader. Cell density was determined and cells re-suspended to a concentration of 5×10^5 cells ml^−1 in AE media. Sterile 96 wells microtiter plates with lids (Costar) were inoculated with 198 µl of this cell suspension (10^5 cells per well) and 2 µl of inhibitor (100× in DMSO). Final inhibitor concentrations were between 0.95 nM and 1 mM with uniform 4× dilution factor steps (11 inhibitor concentrations+1 DMSO control). Plates were incubated for 6 days at 19°C in the dark before cells were re-suspended and measured for growth (OD600 nm). IC50 values were determined by non linear curve fitting on the basis of measured OD values versus log inhibitor concentrations (GraphPad Prism 5.0 software).

Experiment [2] deals with M. graminicola isolate IPO323. Description: UV mutagenesis and selection of resistant colonies on carboxamide amended AE agar. Type of experiment: cell-based, Mycosphaerella graminicola. As for the experimental part:
(§2) Selection plates were produced after adding 1% of a 100× DMSO solution of the active ingredients to pre-melted AE-agar.
Cells were harvested from 4 days old V8 agar plates and conidial cells were suspended in liquid AE. 10^7 cells were spread onto carboxamide amended AE agar plates and mutagenized using UV Stratalinker 2400 (Stratagene) with 75 mJ cm^−2 or 50 mJ cm^−2. […] Selection plates were incubated in the dark at 20°C for 14 days. Visible colonies were picked from the primary selection plate and re-grown on fresh selection media for 2 additional weeks under the same conditions.

Experiment [3] has as its target succinate dehydrogenase (SDH), WT (IPO323) (Zymoseptoria tritici (Mycosphaerella graminicola), UniProt F9X9V6+F9XG45+F9XH52). Kind of experiment: in vitro succinate: Q0/DCPIP activity test, purified mitochondria. The class given is biochemical. The following applies: ±S.E. (triplicate), read-out: IC50 in vitro. Here is the method:
as §1
(§3) Strains were grown in 1 liter TSM40 units. Cultures were inoculated at 0.05 OD600 nm and grown on a reciprocal shaker (110 rpm, 22°C) for 5 days. Cells were harvested by vacuum filtration and disrupted in liquid nitrogen using a mortar and pestle. Resultant powder was re-suspended to 10% w/v in mitochondrial extraction buffer (10 mM KHPO4 pH7.2; 10 mM KCl, 10 mM MgCl2, 0.5 M sucrose, 0.2 mM EDTA, 2 mM PMSF). Extract was clarified by centrifugation (5,000 g, 4°C for 10 minutes, 2 times), intact mitochondria were then pelleted at 10,000 g for 20 minutes at 4°C. […] This volume was transferred to conical 1.5 ml tubes and re-centrifuged, 10,000 g for 10 minutes at 4°C. […] Mitochondrial suspensions were brought to a final concentration of 10 mg ml^−1 in extraction buffer and stored at −80°C until used.
(§4) Mitochondrial suspensions were incubated at 30°C for 30 minutes in extraction buffer supplemented with 10 mM succinate prior to enzymatic measurements.
(§5) A reaction plate was equilibrated for 10 minutes at 30°C before starting the reaction. DCPIP reduction was conducted at 30°C and monitored at 595 nm using a HTS7000 microtiterplate reader (Perkin Elmer). For calculations a molecular extinction coefficient of ε = 17 mM^−1 cm^−1 was used.
(§6) Inhibitor concentrations ranged between 1 mM and 0.95 nM with uniform 4× dilution factor steps (11 inhibitor concentrations+DMSO control). 96 wells plates were pre equilibrated at reaction temperature (30°C) for 10 minutes before the reactions were started by the addition of 5 µl preactivated M. graminicola mitochondrial suspension. Calculated absorbance slopes (OD/hour) were used for IC50 calculations using Graphpad Prism 5.0 software non linear curve fitting against log inhibitor concentrations.

For experiment [4], the system named is wild type IPO323 M. graminicola strain. The class given is cell-based, Mycosphaerella graminicola. The following applies: minimal concentration to fully inhibit growth of WT IPO323, AE agar, 10^7 cells, 2 weeks at 20°C in the dark.
Text: as §2

Experiment [5] deals with SDH C_A84I (strain Flu21). Description: in vitro succinate: Q0/DCPIP activity test, purified mitochondria. The class given is biochemical, Mycosphaerella graminicola. The following applies: ratio IC50mutant/IC50WT, single determination. Here is the method:
as §1, §3, §4, §5, §6

The subject of experiment [6] is SDH B_H267N (strain Cbx96). The experiment is described as above. The class given is biochemical, Mycosphaerella graminicola. Particulars: ratio IC50mutant/IC50WT, single determination. As for the experimental part: as §1, §3, §4, §5, §6
Experiment [7] concerns SDH B_H267L (strain Cbx29). Described as above. Type of experiment: biochemical, Mycosphaerella graminicola. Particulars: ratio IC50mutant/IC50WT, single determination. As for the experimental part: as §1, §3, §4, §5, §6
Experiment [8] concerns SDH C_A84V (strain Flu4). Described as above. Type of experiment: biochemical, Mycosphaerella graminicola. The following applies: ratio IC50mutant/IC50WT, single determination. Here is the method: as §1, §3, §4, §5, §6
Experiment [9] has as its system SDH C_N86K (strain Izm7). Described as above. Type of experiment: biochemical, Mycosphaerella graminicola. Particulars: ratio IC50mutant/IC50WT, single determination. As for the experimental part:
as §1, §3, §4, §5, §6

Experiment [10] concerns SDH D_D129S (strain Cbx101). The description is as above. The following applies: ratio IC50mutant/IC50WT, single determination. The class given is biochemical, Mycosphaerella graminicola. Here is the method: as §1, §3, §4, §5, §6
In experiment [11] the test system is SDH B_N271K (strain Flu33). The experiment is described as above. The following applies: ratio IC50mutant/IC50WT, single determination. Type of experiment: biochemical, Mycosphaerella graminicola. As for the experimental part:
as §1, §3, §4, §5, §6

Experiment [12] has as its system SDH C_V88D (strain Ol50). The experiment is described as above. Type of experiment: biochemical, Mycosphaerella graminicola. Particulars: ratio IC50mutant/IC50WT, single determination. Here is the method:
as §1, §3, §4, §5, §6

Experiment [13] concerns SDH C_L85P (strain Cbx12). Described as above. Particulars: ratio IC50mutant/IC50WT, single determination. The class given is biochemical, Mycosphaerella graminicola. As for the experimental part: as §1, §3, §4, §5, §6
In experiment [14] the test system is SDH B_N225H (strain Cbx106). Described as above. The class given is biochemical, Mycosphaerella graminicola. The following applies: ratio IC50mutant/IC50WT, single determination. As for the experimental part: as §1, §3, §4, §5, §6
The test system of experiment [15] is SDH C_T79I (strain Bos64). Described as above. Type of experiment: biochemical, Mycosphaerella graminicola. Particulars: ratio IC50mutant/IC50WT, single determination. As for the experimental part: as §1, §3, §4, §5, §6
Experiment [16] concerns SDH C_H152R (strain Izm1). The experiment is described as above. Type of experiment: biochemical, Mycosphaerella graminicola. The following applies: ratio IC50mutant/IC50WT, single determination. Here is the method: as §1, §3, §4, §5, §6
Experiment [17] relates to SDH B_R265P (strain Cbx56). Described as above. Type of experiment: biochemical, Mycosphaerella graminicola. Particulars: ratio IC50mutant/IC50WT, single determination. Here is the method:
as §1, §3, §4, §5, §6

The test system of experiment [18] is SDH B_N225I (strain Flu7). The description is as above. The following applies: ratio IC50mutant/IC50WT, single determination. Type of experiment: biochemical, Mycosphaerella graminicola. Here is the method: as §1, §3, §4, §5, §6
Experiment [19] concerns SDH B_S218F (strain Flu41). The description is as above. Type of experiment: biochemical, Mycosphaerella graminicola. Particulars: ratio IC50mutant/IC50WT, single determination. As for the experimental part:
as §1, §3, §4, §5, §6

succinate dehydrogenase (SDH), WT (IPO323), sequence (F9XG45 entry or part of it): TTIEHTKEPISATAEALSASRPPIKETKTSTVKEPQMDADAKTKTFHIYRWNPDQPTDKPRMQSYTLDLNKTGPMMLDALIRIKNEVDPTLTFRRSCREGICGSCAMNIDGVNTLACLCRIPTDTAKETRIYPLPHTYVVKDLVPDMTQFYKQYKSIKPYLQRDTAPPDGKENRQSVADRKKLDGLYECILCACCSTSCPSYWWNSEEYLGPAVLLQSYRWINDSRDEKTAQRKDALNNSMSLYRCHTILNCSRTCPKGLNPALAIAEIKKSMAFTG
succinate dehydrogenase (SDH), WT (IPO323), sequence (F9X9V6 entry or part of it): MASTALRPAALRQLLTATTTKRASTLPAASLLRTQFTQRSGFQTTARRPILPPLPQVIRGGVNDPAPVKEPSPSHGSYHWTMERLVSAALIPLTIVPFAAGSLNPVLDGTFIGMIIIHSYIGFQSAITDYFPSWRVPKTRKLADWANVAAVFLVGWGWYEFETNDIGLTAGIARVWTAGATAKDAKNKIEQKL
succinate dehydrogenase (SDH), WT (IPO323), sequence (F9XH52 entry or part of it): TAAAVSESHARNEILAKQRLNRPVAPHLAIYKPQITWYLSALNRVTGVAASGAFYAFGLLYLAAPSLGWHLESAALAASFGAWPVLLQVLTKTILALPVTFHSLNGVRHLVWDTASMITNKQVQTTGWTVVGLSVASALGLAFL

As a reminder, the IC50 is the concentration that inhibits the measured activity by half. Take `CC(C)C1C2CCC1c1c(NC(=O)c3cn(C)nc3C(F)F)cccc12` (centres unmarked) [Isopyrazam]: the “Resistance Factors (RFs) in vivo” value in experiment [1] (None, IPO323, ratio IC50mutant/IC50WT) turned out to be 1. Further, the IC50 in experiment [1] (Zymoseptoria tritici, WT (IPO323), liquid culture growth, ±S.E. (triplicate), read-out: IC50 in vivo) stood at 55 ± 2 nM; in experiment [3], 5 ± 0.3 nM. The “Frequency (of resistance development)” value in [2] (selection at 5× MSC, UV treatment 50 mJ cm^−2) came out at 1.4E-07; in [2] (selection at 5× MSC, UV treatment 75 mJ cm^−2), 1.7E-07; in experiment [2] (selection at MSC, UV treatment 50 mJ cm^−2) it was 3.2E-07; in experiment [2] (selection at MSC, UV treatment 75 mJ cm^−2), 4.1E-07. Besides, the “Minimal selective concentration (MSC)” value in experiment [4] is reported as “Isopyrazam 3 µM (MSC)”. Moreover, the “Resistance Factors (RFs) in vitro” value in [5] is 8.1; in experiment [6] it was 11.1; in experiment [7], 3248.5; in [8], 3.1; in experiment [9], 849.9; in experiment [10], 82.5. Moreover, the “Resistance Factors (RFs) in vitro” value in experiment [11] was determined as 89.5; in [12] it was 140.4; in experiment [13] it was 35.3; in [14], 15.7; in [15], 56.4; in experiment [16] it was 95.0. Besides, the “Resistance Factors (RFs) in vitro” value came out at 88.3 in experiment [17], 7.0 in [18] and 18.2 in experiment [19].
